Laboratory results: US5430062A, “Stilbene derivatives as anticancer agents” (priority 1993, dated 1995)
Where two headings read alike, the source gives them in different places.

Tests used:
SKMEL-5 melanoma = experiment: MTT cytotoxicity assay, SKMEL-5; details: Homo sapiens, SK-MEL-5, […], read-out: Cytotoxicity ED50, SKMEL-5
A-549 lung carcinoma = experiment: MTT cytotoxicity assay, A-549; details: Homo sapiens, A549, […]
MCF-7 breast carcinoma = experiment: MTT cytotoxicity assay, MCF-7; details: Homo sapiens, MCF7, […]
MLM melanoma = experiment: MTT cytotoxicity assay, MLM
[1] = system: HT-29 colon adenocarcinoma; experiment: MTT cytotoxicity assay, HT-29; details: Homo sapiens, HT-29, […]
[2] = read-out: Cytotoxicity ED50, A-549, A-549, MTT, six days
[3] = read-out: Cytotoxicity ED50, MCF-7, MCF-7, MTT, six days
[4] = […], read-out: Cytotoxicity ED50, MLM, MLM, MTT, six days
[5] = read-out: Cytotoxicity ED50, HT-29, HT-29, MTT, six days
[6] = read-out: Cytotoxicity ED50, A-549
[7] = read-out: Cytotoxicity ED50, MCF-7
[8] = […], read-out: Cytotoxicity ED50, MLM
[9] = read-out: Cytotoxicity ED50, HT-29

Row | Compound | IC50 (SKMEL-5 melanoma) [µM] | IC50 (A-549 lung carcinoma; [2]) [µM] | IC50 (MCF-7 breast carcinoma; [3]) [µM] | IC50 (MLM melanoma; [4]) [µM] | IC50 [1, 5] [µM] | IC50 (A-549 lung carcinoma; [6]) [µM] | IC50 (MCF-7 breast carcinoma; [7]) [µM] | IC50 (MLM melanoma; [8]) [µM] | IC50 [1, 9] [µM] | IC50 (MLM melanoma; read-out: Cytotoxicity ED50, MLM, MLM, MTT, six days, 8640 min) [µM]
1 | COc1cccc(/C=C/c2cc(OC)c(OC)c(OC)c2)c1 [6b] | 10.5 | 9.8 | 12.2 | > 25 | 7.3 | – | – | – | – | –
2 | COc1ccccc1/C=C/c1cc(OC)c(OC)c(OC)c1 [6c] | 13.5 | – | – | – | – | 12.2 | 18 | > 25 | 12.1 | –
3 | COc1ccc(/C=C/c2cc(OC)c(OC)c(OC)c2)c(Cl)c1 [6e] | > 25 | > 25 | > 25 | > 25 | > 25 | – | – | – | – | –
4 | COc1cc(/C=C/c2ccccc2)cc(OC)c1OC [6f] | > 25 | – | – | – | – | > 25 | > 25 | > 25 | > 25 | –
5 | COc1cc(/C=C/c2ccc(Cl)cc2)cc(OC)c1OC [6g] | > 25 | – | – | – | – | > 25 | > 25 | > 25 | > 25 | –
6 | COc1cc(/C=C/c2ccc(Br)cc2)cc(OC)c1OC [6h] | 6.53 | – | – | – | – | 6.47 | 9.14 | 5.13 | 12.7 | –
7 | COc1cc(/C=C/c2ccncc2)cc(OC)c1OC [6i, 1-(4-Pyridyl)-2-(3,4,5-trimethoxyphenyl)ethene] | > 25 | – | – | – | – | > 25 | > 25 | > 25 | > 25 | –
8 | COc1cc(/C=C/c2cccnc2)cc(OC)c1OC [6j, 1-(3-Pyridyl)-2-(3,4,5-trimethoxyphenyl)ethene] | > 25 | – | – | – | – | > 25 | > 25 | > 25 | > 25 | –
9 | COc1cc(/C=C/c2ccc(O[Si](C)(C)C(C)(C)C)cc2)cc(OC)c1OC [6m, (E)-1-[(4-t-Butyldimethylsilyloxy)phenyl]-2-(3,4,5-trimethoxyphenyl)ethene] | > 25 | – | – | – | – | > 25 | > 25 | > 25 | > 25 | –
10 | COc1cc(/C=C/c2ccc(OC(C)=O)cc2)cc(OC)c1OC [6p, (E)-1-(4-Acetoxyphenyl)-2-(3,4,5-trimethoxyphenyl)ethene] | 4.6 | – | – | – | – | 9.7 | 9.6 | 13 | 5.4 | –
11 | COc1ccc(/C=C/c2ccccc2)cc1OC [6q, (E)-1-(3,4-Dimethoxyphenyl)-2-phenylethene] | > 25 | – | – | – | – | > 25 | > 25 | > 25 | > 25 | –
12 | COc1ccc(/C=C/c2ccccc2)c(OC)c1OC [6r, (E)-1-Phenyl-2-(2,3,4-trimethoxyphenyl)ethene] | > 25 | – | – | – | – | > 25 | > 25 | > 25 | > 25 | –
13 | COc1cc(/C=C/c2cc(OC)c(OC)c(OC)c2)cc(OC)c1 [6s] | > 25 | – | – | – | – | > 25 | > 25 | > 25 | > 25 | –
14 | COc1cc(/C=C/c2ccc(OC)c(OC)c2OC)cc(OC)c1OC [6t] | 10.6 | – | – | – | – | 12.5 | 14.7 | 23.9 | 10.3 | –
15 | COc1cc(/C=C/c2cc(OC)c(OC)c(OC)c2)cc(OC)c1OC [6u] | > 25 | – | – | – | – | > 25 | > 25 | > 25 | > 25 | –
16 | COc1cc(OC)c(OC)cc1/C=C/c1cc(OC)c(OC)c(OC)c1 [6v] | > 25 | – | – | – | – | > 25 | > 25 | > 25 | > 25 | –
17 | COc1cc(OC)c(OC)cc1/C=C/c1ccccc1 [6w] | > 25 | – | – | – | – | > 25 | 8.5 | > 25 | > 25 | –
18 | COc1cc(OC)c(/C=C/c2ccccc2)c(OC)c1 [6x] | > 25 | – | – | – | – | > 25 | > 25 | > 25 | > 25 | –
19 | COc1cc(/C=C/c2ccc(OC)c(OC)c2)cc(OC)c1 [6y] | > 25 | – | – | – | – | > 25 | > 25 | > 25 | > 25 | –
20 | COc1cc(/C=C/c2ccc(N)cc2)cc(OC)c1OC [6z, (E)-1-(4-Aminophenyl)-2-(3,4,5-trimethoxyphenyl)ethene] | > 25 | – | – | – | – | > 25 | > 25 | > 25 | > 25 | –
21 | COc1cccc(CCc2cc(OC)c(OC)c(OC)c2)c1 [8b] | 9.2 | – | – | – | – | 11.7 | 12.4 | > 25 | 7.6 | –
22 | COc1ccccc1CCc1cc(OC)c(OC)c(OC)c1 [8c] | 20 | – | – | – | – | 13.5 | 11.8 | > 25 | > 25 | –

Row | Compound | IC50 (SKMEL-5 melanoma) [µM] | IC50 (A-549 lung carcinoma; [2]) [µM] | IC50 (MCF-7 breast carcinoma; [3]) [µM] | IC50 (MLM melanoma; [4]) [µM] | IC50 [1, 5] [µM] | IC50 (A-549 lung carcinoma; [6]) [µM] | IC50 (MCF-7 breast carcinoma; [7]) [µM] | IC50 (MLM melanoma; [8]) [µM] | IC50 [1, 9] [µM] | IC50 (MLM melanoma; read-out: Cytotoxicity ED50, MLM, MLM, MTT, six days, 8640 min) [µM]
23 | COc1cc(CCc2ccccc2)cc(OC)c1OC [8f] | > 25 | – | – | – | – | > 25 | > 25 | > 25 | > 25 | –
24 | COc1cc(CCc2ccncc2)cc(OC)c1OC [8i, 1-(4-Pyridyl)-2-(3,4,5-trimethoxyphenyl)ethane] | > 25 | – | – | – | – | > 25 | > 25 | > 25 | > 25 | –
25 | COc1cc(CCc2cccnc2)cc(OC)c1OC [8j, 1-(3-Pyridyl)-2-(3,4,5-trimethoxyphenyl)ethane] | > 25 | – | – | – | – | 12.2 | > 25 | > 25 | > 25 | –
26 | COc1cc(CCc2ccc(O)cc2)cc(OC)c1OC [8o, 1-(4-hydroxyphenyl)-2-(3,4,5-trimethoxyphenyl)ethane] | > 25 | – | – | – | – | > 25 | > 25 | > 25 | > 25 | –
27 | COc1cc(CCc2ccc(OC(C)=O)cc2)cc(OC)c1OC [8p] | > 25 | – | – | – | – | 19 | > 25 | > 25 | > 25 | –
28 | COc1ccc(CCc2ccccc2)cc1OC [8q] | > 25 | – | – | – | – | > 25 | > 25 | > 25 | > 25 | –
29 | COc1ccc(CCc2ccccc2)c(OC)c1OC [8r] | > 25 | – | – | – | – | > 25 | > 25 | > 25 | > 25 | –
30 | COc1cc(CCc2ccc(OC)c(OC)c2OC)cc(OC)c1OC [8t] | > 25 | – | – | – | – | > 25 | > 25 | > 25 | > 25 | –
31 | COc1cc(CCc2cc(OC)c(OC)c(OC)c2)cc(OC)c1OC [8u] | > 25 | – | – | – | – | > 25 | > 25 | > 25 | > 25 | –
32 | COc1cc(OC)c(OC)cc1CCc1cc(OC)c(OC)c(OC)c1 [8v] | > 25 | – | – | – | – | > 25 | > 25 | > 25 | > 25 | –
33 | COc1ccc(C(=O)Nc2cc(OC)c(OC)c(OC)c2)cc1OC [11b] | > 25 | – | – | – | – | > 25 | > 25 | > 25 | > 25 | –
34 | COc1ccc(C(=O)Nc2cc(OC)c(OC)c(OC)c2)cc1 [11c, 4-Methoxy-N-(3,4,5-trimethoxyphenyl)benzamide] | > 25 | – | – | – | – | > 25 | > 25 | > 25 | > 25 | –
35 | COc1ccc(C(=O)Nc2cc(OC)cc(OC)c2)cc1 [11e] | > 25 | – | – | – | – | > 25 | > 25 | > 25 | > 25 | –
36 | COc1cc(NC(=O)c2cc(OC)c(OC)c(OC)c2)cc(OC)c1OC [11f] | > 25 | – | – | – | – | > 25 | > 25 | > 25 | > 25 | –
37 | COc1ccc(CNc2cc(OC)c(OC)c(OC)c2)cc1OC [12b] | > 25 | – | – | – | – | > 25 | > 25 | > 25 | > 25 | –
38 | COc1ccc(CNc2cc(OC)cc(OC)c2)cc1 [12e] | > 25 | – | – | – | – | > 25 | > 25 | > 25 | > 25 | –
39 | COc1cc(CNc2cc(OC)c(OC)c(OC)c2)cc(OC)c1OC [12f] | > 25 | – | – | – | – | > 25 | > 25 | > 25 | > 25 | –
40 | COc1cc(/C=C\c2ccc(C)cc2)cc(OC)c1OC [15d, (Z)-(4-Methylphenyl)-2-(3,4,5-trimethoxyphenyl)ethene] | 0.00083 | – | – | – | – | 0.00094 | 0.024 | 0.0066 | 0.0023 | –
41 | CCc1ccc(/C=C\c2cc(OC)c(OC)c(OC)c2)cc1 [15e, (Z)-(4-Ethylphenyl)-2-(3,4,5-trimethoxyphenyl)ethene] | 0.00086 | – | – | – | – | 0.012 | 0.072 | 0.0075 | 0.0027 | –
42 | CCCOc1ccc(/C=C/c2cc(OC)c(OC)c(OC)c2)cc1 [16b, (E)-1-(4-n-Propoxyphenyl)-2-(3,4,5-trimethoxyphenyl)ethene] | > 25 | – | – | – | – | 9.2 | 12.5 | > 25 | > 25 | –
43 | COc1cc(/C=C/c2ccc(C)cc2)cc(OC)c1OC [16d, (E)-(4-Methylphenyl)-2-(3,4,5-trimethoxyphenyl)ethene] | 0.8 | – | – | – | – | 1.1 | 1.9 | 6.3 | 0.9 | –
44 | (E)-1-[4-(Benzyloxy)-3,5-(dimethoxy)phenyl]-2-(4-methoxyphenyl)ethene [16j] | – | – | – | – | – | – | – | – | – | > 25
